Measurements as given in patent US20240239788A1, “SMALL MOLECULE INHIBITORS OF KRAS G12D MUTANT” (Merck Sharp & Dohme LLC, priority 2021, published 2024).
Where two headings read alike, the source gives them in different places. One block for each compound: values may come before it.

Tests used:
[1] = biological target: KRAS protein containing G12D mutation (Homo sapiens (Human), UniProt P01116, G12D); assay: SOS-catalyzed nucleotide exchange assay (GNE), TR-FRET; assay type: biochemical; conditions: biotinylated KRAS G12D, SOS and GTP, 60-minute incubation
Method: Compounds are added to this complex and then after a 60-minute incubation time the mixture is treated with SOS and unlabeled GTP. Small molecule inhibitors stabilize the Bodipy-GDP complex whereas the untreated protein rapidly exchanges Bodipy-GDP for unlabeled GTP resulting in reduced TR-FRET signal.
This solution is referred to as biotinylated KRAS G12D stock solution.

[2] = tested on: AsPC-1 cells containing homozygous KRAS-G12D activating mutation; assay: Cellular phospho-ERK assay (Examples 1a-106); assay type: cell-based; conditions: AsPC-1 cells, 2 hours, ratio of p-Erk vs total Erk, read-out: IC50 (nM) pERK (Cell)
Source text: 5% CO? overnight. […] Assay plates were read on a EnVision Multimode Plate Reader (PerkinElmer) and the ratio of p-Erk vs total Erk in each well was used as the final readout.

KRAS protein containing G12D mutation, sequence (P01116 other isoform, or with tags, fused parts or gaps G12D (already in the parent)): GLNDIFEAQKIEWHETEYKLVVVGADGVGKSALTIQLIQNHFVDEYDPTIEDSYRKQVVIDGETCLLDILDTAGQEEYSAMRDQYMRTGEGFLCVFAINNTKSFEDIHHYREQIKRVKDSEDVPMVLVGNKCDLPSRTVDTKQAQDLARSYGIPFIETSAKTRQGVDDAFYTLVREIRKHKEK

Compound: Cc1cc2[nH]ncc2c(C2Cc3nc(OCC4(CN5CC[C@@H](F)C5)CC4)nc(N4C[C@H]5CC[C@@](C)(C4)N5)c3C(=O)N2)c1C(F)(F)F (stereo partly drawn) [Ex. 98b, 2-((1-(((R)-3-fluoropyrrolidin-1-yl)methyl)cyclopropyl)methoxy)-7-(6-methyl-5-(trifluoromethyl)-1H-indazol-4-yl)-4-((1S,5R)-1-methyl-3,8-diazabicyclo[3.2.1]octan-3-yl)-7,8-dihydropyrido[4,3-d]pyrimidin-5(6H)-one]
IC50 [1]: 11100 nM | IC50 ([2]; Homo sapiens, ASPC1, 2 h): 50800 nM

Compound: Oc1cc(-c2c(F)cc3c(N4CC5NC(C4)C(O)C5O)nc(OCC4(CN5CCOCC5)CC4)nc3c2F)c2ccccc2c1 (stereo not drawn) [Ex. 2, 3-(6,8-difluoro-7-(3-hydroxynaphthalen-1-yl)-2-((1-(morpholinomethyl)cyclopropyl)methoxy)quinazolin-4-yl)-3,8-diazabicyclo[3.2.1]octane-6,7-diol]
IC50 [1]: 660 nM | IC50 ([2]; Homo sapiens, ASPC1, 2 h): 33200 nM

Compound: C#Cc1cccc2cc(O)cc(-c3c(F)cc4c(N5C[C@H]6CC[C@@](C)(C5)N6)nc(OC[C@]5(CO)CC5(F)F)nc4c3F)c12 (single isomer, unassigned) [Ex. 90]
IC50 [1]: 0.565 nM | IC50 ([2]; Homo sapiens, ASPC1, 2 h): 564 nM

Compound: CNc1nc2c(-c3c(Cl)cc4c(N5CC6CCC(C5)N6)nc(OCC5(CN6CCOCC6)CC5)nc4c3F)ccc(F)c2s1 [Example 51, 4-(4-(3,8-diazabicyclo[3.2.1]octan-3-yl)-6-chloro-8-fluoro-2-((1-(morpholinomethyl)cyclopropyl)methoxy)quinazolin-7-yl)-7-fluoro-N-methylbenzo[d]thiazol-2-amine]
IC50 [1]: 3930 nM | IC50 ([2]; Homo sapiens, ASPC1, 2 h): 11200 nM

Compound: Cc1cc2[nH]ncc2c(C2Cc3nc(OCC4(CN5CC[C@@H](F)C5)CC4)nc(N4C[C@H]5CC[C@@](C)(C4)N5)c3CO2)c1C(F)(F)F (stereo partly drawn) [Ex. 97, 2-((1-(((R)-3-fluoropyrrolidin-1-yl)methyl)cyclopropyl)methoxy)-7-(6-methyl-5-(trifluoromethyl)-1H-indazol-4-yl)-4-((1S,5R)-1-methyl-3,8-diazabicyclo[3.2.1]octan-3-yl)-7,8-dihydro-5H-pyrano[4,3-d]pyrimidine]
IC50 [1]: 3950 nM | IC50 ([2]; Homo sapiens, ASPC1, 2 h): 24300 nM

Compound: C[C@]12CC[C@H](CN(c3nc(OCC4(CN5CCOCC5)CC4)nc4c(F)c(-c5c(F)cc(F)c6ccc(N)nc56)c(Cl)cc34)C1)N2 (single isomer, unassigned) [Ex. 91a]
IC50 [1]: 11100 nM | IC50 [2]: 17600 nM

Compound: O=C(O)C1CC1COc1nc(N2CC3CCC(C2)N3)c2cc(F)c(-c3cc(O)cc4ccccc34)c(F)c2n1 (stereo not drawn) [Example 13, 2-(((4-(3.8-diazabicyclo[3.2.1]octan-3-yl)-6,8-difluoro-7-(3-hydroxynaphthalen-1-yl)quinazolin-2-yl)oxy)methyl)cyclopropane-1-carboxylc acid]
IC50 [1]: 5880 nM | IC50 [2]: 50800 nM

Compound: CN(C)CC1(COc2nc(N3C[C@@]4(C)CC[C@H]3CN4)c3cc(Cl)c(-c4cc(O)cc5ccccc45)c(F)c3n2)CC1 (single isomer, unassigned) [Example 38b]
IC50 [1]: 3400 nM | IC50 [2]: 22200 nM

Compound: Cc1c(Cl)cc2[nH]nc(C)c2c1-c1c(F)cc2c(N3C[C@H]4CC[C@@](C)(C3)N4)nc(OC[C@]3(CN(C)C)CC3(F)F)nc2c1F [Ex 75, 1-((1R)-1-(((7-(6-chloro-3,5-dimethyl-1H-indazol-4-yl)-6,8-difluoro-4-((1S,5R)-1-methyl-3,8-diazabicyclo[3.2.1]octan-3-yl)quinazolin-2-yl)oxy)methyl)-2,2-difluorocyclopropyl)-N,N-dimethylmethanamine]
IC50 [1]: 1440 nM | IC50 ([2]; Homo sapiens, ASPC1, 2 h): 7160 nM

Compound: Cc1c(Cl)cc2[nH]nc(C)c2c1-c1c(F)cc2c(N3CC4CCC(C3)N4)nc(OCC3(CN4CCOCC4)CC3)nc2c1F [Ex 74, 4-((1-(((4-(3,8-diazabicyclo[3.2.1]octan-3-yl)-7-(6-chloro-3,5-dimethyl-1H-indazol-4-yl)-6,8-difluoroquinazolin-2-yl)oxy)methyl)cyclopropyl)methyl) morpholine]
IC50 [1]: 69.1 nM | IC50 ([2]; Homo sapiens, ASPC1, 2 h): 2000 nM

IC50 [1]: 2.72 nM | IC50 ([2]; Homo sapiens, ASPC1, 2 h): 640 nM
Compound: CN(C)C[C@@]1(COc2nc(N3C[C@]4(C)CC[C@H]3CN4)c3cc(F)c(-c4cc(O)cc5ccccc45)c(F)c3n2)CC1(F)F [Ex 83, 4-(2-(((R)-1-((dimethylamino)methyl)-2,2-difluorocyclopropyl)methoxy)-6,8-difluoro-4-((1S,4S)-4-methyl-2,5-diazabicyclo [2.2.2]octan-2-yl)quinazolin-7-yl) naphthalen-2-ol]

IC50 [1]: 159 nM | IC50 ([2]; Homo sapiens, ASPC1, 2 h): 13300 nM
Compound: C=C[C@H]1[C@@H]2CC[C@@H](CN2)N1c1nc(OCC2(CN(C)C)CC2)nc2c(F)c(-c3cc(O)cc4ccccc34)c(F)cc12 [Ex. 6a, 4-(2-((1-((dimethylamino)methyl)cyclopropyl)methoxy)-6,8-difluoro-4-((1S,3S,4S)-3-vinyl-2,5-diazabicyclo[2.2.2]octan-2-yl)quinazolin-7-yl)naphthalen-2-ol]

Compound: Nc1nc2c(-c3c(Cl)cc4c(N5CC6CCC(C5)N6)nc(OCC5(CN6CCOCC6)CC5)nc4c3F)cccc2o1 [Example 59, 4-(4-(3,8-diazabicyclo[3.2.1]octan-3-yl)-6-chloro-8-fluoro-2-((1-(morpholinomethyl)cyclopropyl)methoxy)quinazolin-7-yl)benzo[d]oxazol-2-amine]
IC50 [1]: 20.1 nM | IC50 ([2]; Homo sapiens, ASPC1, 2 h): 2210 nM

Compound: Cc1cc2[nH]ncc2c(-c2c(F)cc3c(N4C[C@H]5CC[C@@](C)(C4)N5)nc(OC[C@]4(CN(C)C)CC4(F)F)nc3c2F)c1C(F)(F)F (single isomer, unassigned) [Ex 76b]
IC50 [1]: 597 nM | IC50 [2]: 4530 nM

Compound: Oc1ccc(SC(F)(F)F)c(-c2c(F)cc3c(N4CC5CCC(C4)N5)nc(OCC4(CN5CCOCC5)CC4)nc3c2F)c1 [Example 48, 3-(4-(3,8-diazabicyclo[3.2.1]octan-3-yl)-6,8-difluoro-2-((1-(morpholinomethyl)cyclopropyl)methoxy)quinazolin-7-yl)-4-((trifluoromethyl)thio)phenol]
IC50 [1]: 529 nM | IC50 ([2]; Homo sapiens, ASPC1, 2 h): 6120 nM

Compound: CN(C)CC1(COc2nc(N3CC4CCC(C3)N4)c3cc(Cl)c(-c4cc(O)ccc4C45CC(C4)C5)c(F)c3n2)CC1 [Example 47, 3-(4-(3,8-diazabicyclo[3.2.1]octan-3-yl)-6-chloro-2-((1-((dimethylamino)methyl)cyclopropyl)methoxy)-8-fluoroquinazolin-7-yl)-4-(bicyclo[1.1.1]pentan-1-yl)phenol]
IC50 [1]: 551 nM | IC50 ([2]; Homo sapiens, ASPC1, 2 h): 5790 nM

Compound: Cc1cc2[nH]ncc2c(-c2c(F)cc3c(N4C[C@H]5CC[C@@H](C4)N5)nc(OCC4(CN(C)C)CC4(F)F)nc3c2F)c1Cl (stereo partly drawn) [Example 64, 1-(1-(((4-((1R,5S)-3,8-diazabicyclo[3.2.1]octan-3-yl)-7-(5-chloro-6-methyl-1H-indazol-4-yl)-6,8-difluoroquinazolin-2-yl)oxy)methyl)-2,2-difluorocyclopropyl)-N,N-dimethylmethanamine]
IC50 [1]: 146 nM | IC50 ([2]; Homo sapiens, ASPC1, 2 h): 4380 nM

Compound: CN(C)CC1(COc2nc(N3CC4CC(C#N)C(C3)N4)c3cc(F)c(-c4cc(O)cc5ccccc45)c(F)c3n2)CC1 (stereo not drawn) [Example 28, 3-(2-((1-((dimethylamino)meth-yl)cyclopro-pyl)methoxy)-6,8-difluoro-7-(3-hydroxynaphthalen-1-yl)quinazolin-4-yl)-3,8-diazabicyclo[3.2.1]oc-tane-6-carbontrile]
IC50 [1]: 7450 nM | IC50 ([2]; Homo sapiens, ASPC1, 2 h): 50800 nM

Compound: Fc1cc2c(N3CC4CCC(C3)N4)nc(OCC3(CN4CCOCC4)CC3)nc2c(F)c1-c1cccc2sncc12 [Example 50, 4-((1-(((7-(benzo[d]isothiazol-4-yl)-4-(3,8-diazabicyclo[3.2.1]octan-3-yl)-6,8-difluoroquinazolin-2-yl)oxy)methyl)cyclopropyl)methyl) morpholine]
IC50 [1]: 5180 nM | IC50 ([2]; Homo sapiens, ASPC1, 2 h): 20300 nM

Compound: Nc1nc2c(F)ccc(-c3c(Cl)cc4c(N5CC6CCC(C5)N6)nc(OCC5(CN6CCOCC6)CC5)nc4c3F)c2s1 [Example 54, 7-(4-(3,8-diazabicyclo[3.2.1]octan-3-yl)-6-chloro-8-fluoro-2-((1-(morpholinomethyl)cyclopropyl)methoxy)quinazolin-7-yl)-4-fluorobenzo[d]thiazol-2-amine]
IC50 [1]: 2650 nM | IC50 ([2]; Homo sapiens, ASPC1, 2 h): 14100 nM

Compound: Cc1c(Cl)cc2[nH]nc(C)c2c1-c1c(F)cc2c(N3CC4CCC(C3)N4)nc(OCC3(CN4CC[C@@H](F)C4)CC3)nc2c1F (single isomer, unassigned) [Ex 71a]
IC50 [1]: 18.9 nM | IC50 [2]: 505 nM

IC50 [1]: 426 nM | IC50 ([2]; Homo sapiens, ASPC1, 2 h): 5500 nM
Compound: C=C[C@@H]1[C@@H]2CC[C@@H](CN2)N1c1nc(OCC2(CN(C)C)CC2)nc2c(F)c(-c3cc(O)cc4ccccc34)c(F)cc12 [Example 6b, 4-(2-((1-((dimethylamino)methyl)cyclopropyl)methoxy)-6,8-difluoro-4-((1S,3R,4S)-3-vinyl-2,5-diazabicyclo[2.2.2]octan-2-yl)quinazolin-7-yl)naphthalen-2-ol]

Compound: CN(C)CC1(COc2nc(N3CC4CCC(C3)N4)c3cc(Cl)c(-c4c(Cl)c(F)cc5[nH]ncc45)c(F)c3n2)CC1 [Example 55, 1-(1-(((4-(3,8-diazabicyclo[3.2.1]octan-3-yl)-6-chloro-7-(5-chloro-6-fluoro-1H-indazol-4-yl)-8-fluoroquinazolin-2-yl)oxy)methyl)cyclopropyl)-N,N-dimethylmethanamine]
IC50 [1]: 969 nM | IC50 ([2]; Homo sapiens, ASPC1, 2 h): 7060 nM

Compound: CN(C)C1CC[C@H]2C[C@@]12COc1nc(N2C[C@H]3CC[C@@](C)(C2)N3)c2cc(F)c(-c3cc(O)cc4ccccc34)c(F)c2n1 (single isomer, unassigned) [Example 12a]
IC50 [1]: 1.89 nM | IC50 [2]: 396 nM
